{"source": "patent US8592468B2", "about": "“Bacterial thioredoxin reductase inhibitors and methods for use thereof” (Thioredoxin Systems AB, priority 2006, dated 2013)", "key": {"[1]": {"test_system": "E. coli DHB4 strains", "assay": "Sensitivity of growth of E. coli DHB4 strains to ebselen (A600)", "type": "cell-based", "experimental": "Bacterial cells were grown in 5 mL cultures at 37° C., 120 rpm in 15 mL closed tubes containing Lutria-Bertani (LB) or M9 minimal media supplemented with 50 μg/ml Leu, Ile, 1× basal medium Eagle's vitamin solution (Invitrogen) and 2 μg/mL nicotinic acid. For the experiments regarding sensitivity of growth to ebselen, cells were initially grown overnight at 37° C. at the respective medium. The next day, equal cell numbers (as determined by A600) with dilutions of at least 1:50 were used to start 5 mL cultures containing different concentrations of Ebselen. Ebselen stock solutions were freshly prepared in DMSO. Extra DMSO was added to the cultures so that the total volumes of DMSO were the same per culture even at different final concentrations of Ebselen. Growth inhibition assays were carried out also on M9 minimal plates. The plates were covered with minimal top agar that contained equal cell number for all the strains examined. These were derived from overnight liquid cultures in M9 medium.\nSensitivity to ebselen was measured by inhibition of growth as determined by scattering (absorbance) at 600 nm at different times after inoculation."}, "[2]": {"test_system": "Helicobacter pylori", "assay": "Bactericidal effects of ebselen on Helicobacter pylori (MBC)", "type": "cell-based", "design": "key to Sensitivity to ebselen: S: sensitive; R: resistant", "experimental": "The bacteria were cultured in 96-well microtiter plates with a microaerophilic environment at 37° C. for 4 days. The whole amount of the wells was then plated on GC agar plates containing different concentrations of ebselen. Ebselen was diluted in a two-fold series (0.39-200 μg/ml), the minimal bactericidal concentration (MBC) was determined by the first concentration with a total bactericidal effect."}, "[3]": {"test_system": "mammalian thioredoxin reductases", "assay": "Inhibition of mammalian thioredoxin reductases", "type": "biochemical"}, "[4]": {"molecular_target": "E. coli TrxR (Escherichia coli (strain K12), UniProt P0A9P4)", "sequence (P0A9P4 2-321 limits assumed)": "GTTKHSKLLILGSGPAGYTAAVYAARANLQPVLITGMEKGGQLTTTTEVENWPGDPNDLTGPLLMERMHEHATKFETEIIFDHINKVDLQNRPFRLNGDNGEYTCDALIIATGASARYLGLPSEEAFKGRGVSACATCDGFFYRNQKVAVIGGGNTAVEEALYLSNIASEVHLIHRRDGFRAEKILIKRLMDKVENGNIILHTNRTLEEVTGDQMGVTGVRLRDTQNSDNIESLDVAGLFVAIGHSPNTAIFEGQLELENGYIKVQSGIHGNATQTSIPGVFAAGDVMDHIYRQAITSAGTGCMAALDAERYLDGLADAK", "type": "biochemical", "experimental": "In FIG. 6A, 10 μM of ebselen (▴) and 10 μM of PZ25 (▪) were used as substrate of 25 nM calf thymus TrxR. In FIG. 6B, 10 μM of PZ25 was used as substrate for 10 nM calf thymus TrxR (◯) and 10 nM of E. coli TrxR (●). Reactions were started by adding enzymes in cuvettes containing 500 μl TE buffer with 100 μM NADPH, of which the consumption were followed by the changes of the absorption at 340 nm against identical blank without enzymes.\nReactions were started by adding enzymes to cuvettes containing 500 μl TE buffer with 100 μM NADPH and 16 μM compounds. The NADPH consumption was followed by the changes of the absorption at 340 nm against identical blank without enzymes.\nThe activity of the enzyme was determined at room temperature using an Ultrospec 3000 UV/Visual spectrophotometer (Amersham Biosciences). […] The enzyme-catalysed reactions were followed at 340 nm using the standard calculation of NADPH oxidation to NADP^+ with a molar extinction coefficient of 6200 M^−1 cm^−1 (32, 34). The conditions of the assay of bacterial thioredoxin reductase have been described (32, 34) using either 1 mM DTNB or 160 μM insulin as a substrate. In DTNB coupled assays, 240 μM NADPH and 1 mM DTNB were used in the TE buffer and formation of the TNB was measured at 412 nm, where TNB has an extinction coefficient of 13600 M^−1 cm^−1.\nFurther we examined the effect of ebselen in the reduction of disulphide by E. coli Trx and TrxR using both DTNB and insulin as substrates. […] FIGS. 4A and 4B show the effect of ebselen (4A) and ebselen diselenide (4B) on DTNB reduction by E. coli thioredoxin and thioredoxin reductase. Assays in semi-microcuvettes with 0.5 ml solution contained 0.24 mM NADPH, 1 mM DTNB in 50 mM Tris-Cl/1 mM EDTA, pH 7.5 buffer. (A) In the presence of 2 μM (grey filled points), 5 μM (white filled points) and 10 μM (black filled points) of E. coli Trx and 7.6 nM of E. coli TrxR with ebselen at concentrations of zero (squares), 0.5 μM (triangles), 1 μM (rhombus), and 2 μM (rounds), the increase in A412 was measured against a blank. (B) In the presence of 2 μM (grey filled points), 5 μM (white filled points) and 10 μM (black filled points) of E. coli Trx and 10 nM of E. coli TrxR, with ebselen diselenide at concentrations of zero (squares), 1 μM (triangles) and 2 μM (rounds), the increase in A412 was measured against a blank."}, "[5]": {"molecular_target": "E. coli ribonucleotide reductase (Escherichia coli (strain K12), UniProt P00452+P69924)", "sequence (P00452 whole entry, looked up)": "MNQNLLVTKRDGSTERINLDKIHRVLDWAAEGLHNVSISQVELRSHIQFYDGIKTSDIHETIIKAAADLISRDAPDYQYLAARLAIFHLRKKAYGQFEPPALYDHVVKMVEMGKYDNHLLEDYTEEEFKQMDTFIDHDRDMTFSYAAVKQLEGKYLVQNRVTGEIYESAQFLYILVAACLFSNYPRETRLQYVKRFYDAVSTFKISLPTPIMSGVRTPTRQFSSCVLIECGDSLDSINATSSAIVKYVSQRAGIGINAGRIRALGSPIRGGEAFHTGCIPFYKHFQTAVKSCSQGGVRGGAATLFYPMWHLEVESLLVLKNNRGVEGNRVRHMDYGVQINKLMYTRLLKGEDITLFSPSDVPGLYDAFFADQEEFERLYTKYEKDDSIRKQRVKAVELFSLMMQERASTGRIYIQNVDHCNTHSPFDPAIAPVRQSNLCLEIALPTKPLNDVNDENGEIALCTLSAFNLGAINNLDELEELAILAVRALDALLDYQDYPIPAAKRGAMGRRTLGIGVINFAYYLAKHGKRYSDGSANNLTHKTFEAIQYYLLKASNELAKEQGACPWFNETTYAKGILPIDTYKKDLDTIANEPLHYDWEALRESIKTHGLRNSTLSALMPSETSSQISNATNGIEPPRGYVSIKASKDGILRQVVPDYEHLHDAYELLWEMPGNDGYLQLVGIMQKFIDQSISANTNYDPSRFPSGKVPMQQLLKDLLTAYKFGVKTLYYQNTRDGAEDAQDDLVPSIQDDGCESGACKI", "sequence (P69924 whole entry, looked up)": "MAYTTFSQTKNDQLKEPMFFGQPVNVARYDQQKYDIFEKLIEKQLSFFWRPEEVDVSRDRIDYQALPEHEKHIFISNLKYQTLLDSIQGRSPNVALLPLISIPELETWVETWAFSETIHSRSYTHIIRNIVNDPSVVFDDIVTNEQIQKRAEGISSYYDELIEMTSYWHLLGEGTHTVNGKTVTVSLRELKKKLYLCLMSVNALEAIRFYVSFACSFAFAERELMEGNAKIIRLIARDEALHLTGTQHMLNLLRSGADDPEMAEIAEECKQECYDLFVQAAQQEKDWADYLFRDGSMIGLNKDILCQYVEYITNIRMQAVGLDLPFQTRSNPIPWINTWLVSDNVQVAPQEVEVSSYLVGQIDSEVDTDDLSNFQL", "assay": "Inhibition of E. coli ribonucleotide reductase (data not shown)", "type": "biochemical"}, "[6]": {"test_system": "E. coli NHHJ", "details": "strains of Enterobacteriaceae like E. coli NHHJ; cited from earlier work"}, "[7]": {"test_system": "Staphylococcus aureus", "details": "cited from earlier work"}, "[8]": {"test_system": "Mycobacterium tuberculosis", "assay": "Inhibition of Mycobacterium tuberculosis by ebselen, radiometric BACTEC 460 system", "type": "cell-based"}, "[9]": {"molecular_target": "E. coli Trx-(SH)2 (Escherichia coli (strain K12), UniProt P0AA25)", "details": "fluorescence spectroscopy; cited from earlier work"}}, "note": "Read-outs that look alike come from different tables or passages of the source."}
{"molecule": "O=c1c2ccccc2[se]n1-c1ccccc1", "note": "[EbSe 6, 2-phenyl-1,2-benzisoselenazol-3(2H)-one]", "values": [{"measurement": "wild type bacteria compared with gor^− and gshA^− strains", "setting": "[1]", "value": "more resistant"}, {"measurement": "sensitivity of gshA^−trxA^− strain", "setting": "[1]; LB medium", "value": "more sensitive"}, {"measurement": "sensitivity of strain trxA^−C^− compared with wild type", "setting": "[1]; LB medium", "value": "similar, if not less"}, {"measurement": "growth of gor^− and gshA^− strains in presence of ebselen", "setting": "[1]; minimal media (M9)", "value": "hardly grew"}, {"measurement": "Sensitivity to ebselen", "setting": "[2]; strain MR G162, ebselen 0.78 μg/ml", "value": "R"}, {"measurement": "Sensitivity to ebselen", "setting": "[2]; strain MR G162, ebselen 1.56 μg/ml", "value": "R"}, {"measurement": "Sensitivity to ebselen", "setting": "[2]; strain MR G162, ebselen 3.125 μg/ml", "value": "R"}, {"measurement": "Sensitivity to ebselen", "setting": "[2]; strain MR G162, ebselen 6.25 μg/ml", "value": "R"}, {"measurement": "Sensitivity to ebselen", "setting": "[2]; strain MR G162, ebselen 25 μg/ml", "value": "S"}, {"measurement": "Sensitivity to ebselen", "setting": "[2]; strain MR G162, ebselen 50 μg/ml", "value": "S"}, {"measurement": "Sensitivity to ebselen", "setting": "[2]; strain MR G162, ebselen 100 μg/ml", "value": "S"}, {"measurement": "Sensitivity to ebselen", "setting": "[2]; strain MR G193, ebselen 0.78 μg/ml", "value": "R"}, {"measurement": "Sensitivity to ebselen", "setting": "[2]; strain MR G193, ebselen 1.56 μg/ml", "value": "R"}, {"measurement": "Sensitivity to ebselen", "setting": "[2]; strain MR G193, ebselen 3.125 μg/ml", "value": "R"}, {"measurement": "Sensitivity to ebselen", "setting": "[2]; strain MR G193, ebselen 6.25 μg/ml", "value": "R"}, {"measurement": "Sensitivity to ebselen", "setting": "[2]; strain MR G193, ebselen 25 μg/ml", "value": "S"}, {"measurement": "Sensitivity to ebselen", "setting": "[2]; strain MR G193, ebselen 50 μg/ml", "value": "S"}, {"measurement": "Sensitivity to ebselen", "setting": "[2]; strain MR G193, ebselen 100 μg/ml", "value": "S"}, {"measurement": "Sensitivity to ebselen", "setting": "[2]; strain MS G6, ebselen 0.78 μg/ml", "value": "R"}, {"measurement": "Sensitivity to ebselen", "setting": "[2]; strain MS G6, ebselen 1.56 μg/ml", "value": "R"}, {"measurement": "Sensitivity to ebselen", "setting": "[2]; strain MS G6, ebselen 3.125 μg/ml", "value": "S"}, {"measurement": "Sensitivity to ebselen", "setting": "[2]; strain MS G6, ebselen 6.25 μg/ml", "value": "S"}, {"measurement": "Sensitivity to ebselen", "setting": "[2]; strain MS G6, ebselen 25 μg/ml", "value": "S"}, {"measurement": "Sensitivity to ebselen", "setting": "[2]; strain MS G6, ebselen 50 μg/ml", "value": "S"}, {"measurement": "Sensitivity to ebselen", "setting": "[2]; strain MS G6, ebselen 100 μg/ml", "value": "S"}, {"measurement": "Sensitivity to ebselen", "setting": "[2]; strain MS G142, ebselen 0.78 μg/ml", "value": "R"}, {"measurement": "Sensitivity to ebselen", "setting": "[2]; strain MS G142, ebselen 1.56 μg/ml", "value": "R"}, {"measurement": "Sensitivity to ebselen", "setting": "[2]; strain MS G142, ebselen 3.125 μg/ml", "value": "R"}, {"measurement": "Sensitivity to ebselen", "setting": "[2]; strain MS G142, ebselen 6.25 μg/ml", "value": "S"}, {"measurement": "Sensitivity to ebselen", "setting": "[2]; strain MS G142, ebselen 25 μg/ml", "value": "S"}, {"measurement": "Sensitivity to ebselen", "setting": "[2]; strain MS G142, ebselen 50 μg/ml", "value": "S"}, {"measurement": "Sensitivity to ebselen", "setting": "[2]; strain MS G142, ebselen 100 μg/ml", "value": "S"}, {"measurement": "minimal bactericidal concentration (MBC)", "setting": "[2]; two macrolide sensitive strains, listed as ebselen", "value": 6.25, "unit": "µg/mL"}, {"measurement": "inhibitory activity of mammalian thioredoxin reductases", "setting": "[3]", "value": "no inhibitory activity"}, {"measurement": "oxidation of NADPH when directly added to E. coli TrxR and NADPH", "setting": "[4]", "value": "no oxidations of NADPH"}, {"measurement": "inhibition of E. coli ribonucleotide reductase", "setting": "[5]", "value": "effective direct inhibitor"}, {"measurement": "concentration required to inhibit growth", "setting": "[6]", "value": "up to 50 μg per ml"}, {"measurement": "mode of antibacterial action", "setting": "[7]; S. aureus strains", "value": "bacteriocidal"}, {"measurement": "concentration inhibiting growth", "setting": "[7]; Staphylococcus aureus 209P", "value": 0.20, "unit": "µg/mL"}, {"measurement": "MIC for 90% of S. aureus strains", "setting": "[7]", "value": 1.56, "unit": "μg per ml"}, {"measurement": "sensitivity of S. aureus relative to E. coli", "setting": "[7]", "value": 100, "unit": "fold"}, {"measurement": "concentration inhibiting growth", "setting": "[7]; methicillin resistant Staphylococcus aureus", "value": 0.20, "unit": "μg per ml"}, {"measurement": "MIC", "setting": "[8]; Mycobacterium tuberculosis", "value": "< 20", "unit": "µg/mL"}, {"measurement": "Sensitivity to ebselen", "setting": "[8]; strain BTB 98-310 (MDR), ebselen 10 μg/ml", "value": "R"}, {"measurement": "Sensitivity to ebselen", "setting": "[8]; strain BTB 98-310 (MDR), ebselen 20 μg/ml", "value": "S"}, {"measurement": "Sensitivity to ebselen", "setting": "[8]; strain BTB 98-310 (MDR), ebselen 40 μg/ml", "value": "S"}, {"measurement": "Sensitivity to ebselen", "setting": "[8]; strain BTB 98-310 (MDR), ebselen 80 μg/ml", "value": "S"}, {"measurement": "Sensitivity to ebselen", "setting": "[8]; strain H37Rv, ebselen 10 μg/ml", "value": "R"}, {"measurement": "Sensitivity to ebselen", "setting": "[8]; strain H37Rv, ebselen 20 μg/ml", "value": "S"}, {"measurement": "Sensitivity to ebselen", "setting": "[8]; strain H37Rv, ebselen 40 μg/ml", "value": "S"}, {"measurement": "Sensitivity to ebselen", "setting": "[8]; strain H37Rv, ebselen 80 μg/ml", "value": "S"}, {"measurement": "Sensitivity to ebselen", "setting": "[8]; strain Panel3:24 (MDR), ebselen 10 μg/ml", "value": "R"}, {"measurement": "Sensitivity to ebselen", "setting": "[8]; strain Panel3:24 (MDR), ebselen 20 μg/ml", "value": "S"}, {"measurement": "Sensitivity to ebselen", "setting": "[8]; strain Panel3:24 (MDR), ebselen 40 μg/ml", "value": "S"}, {"measurement": "Sensitivity to ebselen", "setting": "[8]; strain Panel3:24 (MDR), ebselen 80 μg/ml", "value": "S"}, {"measurement": "second-order rate constant of reaction with reduced E. coli Trx", "setting": "[9]", "value": "2e+07", "unit": "M⁻¹ s⁻¹"}]}
